Results from PMC6611227 (Frontiers in Microbiology, 2019).

Molecular target: T1, StDHODH (dihydroorotate dehydrogenase) (Solanum tuberosum, UniProt M1BCR0, I273V/I299V/P120T/P359Q)
T1 construct: gene LOC102578881
T1 sequence (M1BCR0 70-460 P120T/I273V/I299V/P359Q): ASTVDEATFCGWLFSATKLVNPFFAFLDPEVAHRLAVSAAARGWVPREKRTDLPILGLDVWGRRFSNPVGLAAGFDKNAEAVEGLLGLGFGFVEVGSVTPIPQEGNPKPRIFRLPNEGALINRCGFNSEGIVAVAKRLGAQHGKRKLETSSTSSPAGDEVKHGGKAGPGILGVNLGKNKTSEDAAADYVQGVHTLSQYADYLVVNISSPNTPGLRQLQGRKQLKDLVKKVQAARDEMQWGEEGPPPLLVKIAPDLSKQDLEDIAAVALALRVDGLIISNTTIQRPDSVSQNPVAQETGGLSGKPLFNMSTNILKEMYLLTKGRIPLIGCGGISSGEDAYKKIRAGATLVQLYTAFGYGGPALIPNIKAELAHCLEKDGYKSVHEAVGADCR
Assay: biochemical
Details: read-out: Activity % StDHODH

Work on `COc1c(-c2ccccc2)ccc(NC(=O)C(C#N)=C(C)O)c1Cl` [compound 19, N-(3-chloro-2-methoxybiphenyl-4-yl)-2-cyano-3-hydroxybut-2-enamide] yielded an activity at 500 µM of 0%.
